# Laboratory results taken from ChEMBL document CHEMBL1201862, “PubChem BioAssay data set” (2004).
# Active and inactive are the calls of the source.
# Assays:
# H9c2 = test: cells; type: functional, cell-based; details: Rattus norvegicus, H9c2, Myocardium;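 further: confirmatory concentration-response retest of ultra-high-throughput screening hits for modulation of myocardial damage; cell death induced by hydrogen peroxide oxidative stress; compound pretreatment for 60 min then peroxide exposure for 2 h; potency is for protecting the cells against peroxide damage rather than for killing them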
# HEK293 = test: inhibitors of LMP1-driven NF-kB reporter, dose response, cell-based, HEK293, luciferase, cherry-pick (AID 588343); type: functional, Homo sapiens; details: Homo sapiens, HEK293
# Fatty acid synthase [1] = molecular target: T1, Fatty acid synthase (Homo sapiens, UniProt P49327); test: FAS thioesterase domain inhibitors, dose response, biochemical, endpoint fluorescence intensity, uHTS hits (AID 624327); type: functional;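 further: fluorescence from hydrolysis of an O-methyl fluorescein acyl ester substrate by the enzyme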
# T1 sequence (P49327 whole entry, the tested form may be a part): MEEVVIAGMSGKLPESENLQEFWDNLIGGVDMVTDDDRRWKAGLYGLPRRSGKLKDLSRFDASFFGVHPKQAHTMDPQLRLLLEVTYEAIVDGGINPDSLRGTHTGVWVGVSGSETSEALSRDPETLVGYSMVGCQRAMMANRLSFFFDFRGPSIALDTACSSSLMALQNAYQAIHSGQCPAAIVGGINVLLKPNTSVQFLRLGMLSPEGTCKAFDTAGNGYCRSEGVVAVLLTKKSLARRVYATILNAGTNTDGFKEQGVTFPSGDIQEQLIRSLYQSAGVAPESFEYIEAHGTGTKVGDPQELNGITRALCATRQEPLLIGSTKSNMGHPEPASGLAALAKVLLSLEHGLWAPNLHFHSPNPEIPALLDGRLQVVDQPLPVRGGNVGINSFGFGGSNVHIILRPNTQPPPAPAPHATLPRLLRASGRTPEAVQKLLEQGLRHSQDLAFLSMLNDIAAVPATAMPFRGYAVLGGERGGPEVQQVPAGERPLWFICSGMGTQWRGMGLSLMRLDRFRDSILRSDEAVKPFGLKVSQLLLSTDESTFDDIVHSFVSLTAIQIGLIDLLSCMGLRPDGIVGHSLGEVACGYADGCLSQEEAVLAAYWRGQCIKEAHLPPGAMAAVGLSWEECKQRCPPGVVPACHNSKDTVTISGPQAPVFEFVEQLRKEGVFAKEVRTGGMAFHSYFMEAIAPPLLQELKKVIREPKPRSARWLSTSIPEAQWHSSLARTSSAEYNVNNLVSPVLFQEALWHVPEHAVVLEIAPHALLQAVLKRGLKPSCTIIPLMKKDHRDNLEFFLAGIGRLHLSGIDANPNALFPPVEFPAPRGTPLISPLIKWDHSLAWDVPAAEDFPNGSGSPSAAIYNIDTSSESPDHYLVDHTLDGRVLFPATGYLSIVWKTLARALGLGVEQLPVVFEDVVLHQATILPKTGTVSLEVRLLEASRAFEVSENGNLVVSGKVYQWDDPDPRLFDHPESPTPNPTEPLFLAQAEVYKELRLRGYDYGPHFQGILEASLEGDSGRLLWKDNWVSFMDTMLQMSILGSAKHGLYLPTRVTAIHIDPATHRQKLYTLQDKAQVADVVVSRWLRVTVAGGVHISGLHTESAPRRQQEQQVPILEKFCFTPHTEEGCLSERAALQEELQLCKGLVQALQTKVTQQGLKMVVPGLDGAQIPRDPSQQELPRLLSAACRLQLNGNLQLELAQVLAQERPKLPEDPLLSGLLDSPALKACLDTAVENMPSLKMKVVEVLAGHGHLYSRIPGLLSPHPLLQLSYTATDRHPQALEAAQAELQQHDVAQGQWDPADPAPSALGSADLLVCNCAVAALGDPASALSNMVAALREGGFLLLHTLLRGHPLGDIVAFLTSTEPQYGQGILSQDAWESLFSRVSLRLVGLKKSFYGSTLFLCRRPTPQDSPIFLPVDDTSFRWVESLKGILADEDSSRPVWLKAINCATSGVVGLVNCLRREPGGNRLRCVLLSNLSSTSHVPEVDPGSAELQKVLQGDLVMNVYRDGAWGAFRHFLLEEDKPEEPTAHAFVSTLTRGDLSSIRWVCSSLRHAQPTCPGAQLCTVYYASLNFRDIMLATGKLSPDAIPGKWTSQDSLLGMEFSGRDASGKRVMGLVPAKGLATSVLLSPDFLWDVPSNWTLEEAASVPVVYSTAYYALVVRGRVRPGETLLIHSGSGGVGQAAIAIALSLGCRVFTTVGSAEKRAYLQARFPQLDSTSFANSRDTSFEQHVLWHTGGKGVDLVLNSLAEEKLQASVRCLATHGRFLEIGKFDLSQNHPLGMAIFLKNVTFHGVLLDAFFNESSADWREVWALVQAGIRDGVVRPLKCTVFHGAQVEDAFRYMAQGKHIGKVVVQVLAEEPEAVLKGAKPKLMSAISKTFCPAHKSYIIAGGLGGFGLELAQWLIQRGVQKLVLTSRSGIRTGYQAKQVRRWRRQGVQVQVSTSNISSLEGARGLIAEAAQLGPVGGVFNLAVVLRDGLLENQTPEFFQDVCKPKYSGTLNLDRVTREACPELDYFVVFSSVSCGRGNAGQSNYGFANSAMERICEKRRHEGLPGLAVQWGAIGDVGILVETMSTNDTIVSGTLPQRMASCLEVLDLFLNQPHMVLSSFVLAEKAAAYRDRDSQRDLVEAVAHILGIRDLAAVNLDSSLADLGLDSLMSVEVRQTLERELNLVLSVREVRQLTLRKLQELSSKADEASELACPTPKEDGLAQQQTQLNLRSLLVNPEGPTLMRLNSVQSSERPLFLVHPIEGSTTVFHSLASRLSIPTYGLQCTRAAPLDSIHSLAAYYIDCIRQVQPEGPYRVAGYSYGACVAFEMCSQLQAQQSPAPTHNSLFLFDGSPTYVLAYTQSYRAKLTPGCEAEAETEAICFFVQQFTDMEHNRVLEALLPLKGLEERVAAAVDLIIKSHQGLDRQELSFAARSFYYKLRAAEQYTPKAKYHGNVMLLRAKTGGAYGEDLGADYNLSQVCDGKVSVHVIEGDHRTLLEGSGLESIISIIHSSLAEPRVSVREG
# Fatty acid synthase [2] = molecular target: T1, Fatty acid synthase; test: FAS thioesterase domain inhibitors, dose response, biochemical, kinetic fluorescence intensity (AID 624326); type: functional;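 further: rate of fluorescence rise from hydrolysis of a fluorogenic O-methyl fluorescein ester substrate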
# [3] = molecular target: T2, Heat shock factor protein 1 (Mus musculus, UniProt P38532); test: HSF1 potentiators in luciferase reporter cells, confirmation, cell-based, NIH3T3, luminescence, dose retest (AID 435004); type: functional;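 further: stress induced by proteasome inhibitor MG132 added 30 min after compound; luciferase reporter driven by HSF1 response element in NIH3T3 cells; actives raise luminescence as potentiators of the MG132 stress response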
# T2 sequence (P38532 whole entry): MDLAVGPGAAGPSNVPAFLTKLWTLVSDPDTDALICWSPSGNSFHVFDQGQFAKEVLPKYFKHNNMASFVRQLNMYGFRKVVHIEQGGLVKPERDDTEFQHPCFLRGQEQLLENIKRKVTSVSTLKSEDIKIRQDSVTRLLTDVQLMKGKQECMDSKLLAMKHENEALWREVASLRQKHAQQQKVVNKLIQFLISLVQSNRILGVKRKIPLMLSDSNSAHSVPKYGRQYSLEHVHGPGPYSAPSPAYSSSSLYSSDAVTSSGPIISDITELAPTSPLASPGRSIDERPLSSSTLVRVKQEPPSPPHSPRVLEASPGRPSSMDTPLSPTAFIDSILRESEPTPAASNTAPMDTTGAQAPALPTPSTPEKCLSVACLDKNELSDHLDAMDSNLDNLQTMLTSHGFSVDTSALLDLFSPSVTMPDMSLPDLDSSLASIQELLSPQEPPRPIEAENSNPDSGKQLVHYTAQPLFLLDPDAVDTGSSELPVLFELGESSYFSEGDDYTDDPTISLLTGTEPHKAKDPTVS
# [4] = Luminescence Cell-Based Dose Confirmation HTS to Identify Inhibitors of Platelet Dense Granule Release. [Related pubchem assays: 1663 (Primary HTS), 1678 (Summary of Project)]; type: functional
# [5] = molecular target: Luciferin 4-monooxygenase (Photinus pyralis, UniProt P08659); test: firefly luciferase enzyme inhibitors, dose response, biochemical, luminescence (AID 1891)
# Chain of Luciferin 4-monooxygenase (P08659 whole entry): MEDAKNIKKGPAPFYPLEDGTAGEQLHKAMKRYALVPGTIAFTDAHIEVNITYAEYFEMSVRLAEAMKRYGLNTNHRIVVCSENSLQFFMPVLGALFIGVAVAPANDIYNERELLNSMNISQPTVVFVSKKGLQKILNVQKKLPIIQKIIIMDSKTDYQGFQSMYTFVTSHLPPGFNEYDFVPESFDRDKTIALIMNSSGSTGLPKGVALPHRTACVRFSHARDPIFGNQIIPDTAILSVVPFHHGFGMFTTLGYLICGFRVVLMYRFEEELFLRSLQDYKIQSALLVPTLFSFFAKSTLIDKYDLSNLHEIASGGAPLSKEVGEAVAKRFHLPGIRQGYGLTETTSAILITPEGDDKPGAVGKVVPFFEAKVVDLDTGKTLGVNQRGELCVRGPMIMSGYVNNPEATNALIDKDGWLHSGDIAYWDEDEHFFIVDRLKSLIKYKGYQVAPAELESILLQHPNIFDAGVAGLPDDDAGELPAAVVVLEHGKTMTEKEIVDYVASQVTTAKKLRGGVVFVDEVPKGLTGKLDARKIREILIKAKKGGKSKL
# Protein skinhead-1 = molecular target: T3, Protein skinhead-1 (Caenorhabditis elegans, UniProt P34707); type: functional
# T3 sequence (P34707 whole entry): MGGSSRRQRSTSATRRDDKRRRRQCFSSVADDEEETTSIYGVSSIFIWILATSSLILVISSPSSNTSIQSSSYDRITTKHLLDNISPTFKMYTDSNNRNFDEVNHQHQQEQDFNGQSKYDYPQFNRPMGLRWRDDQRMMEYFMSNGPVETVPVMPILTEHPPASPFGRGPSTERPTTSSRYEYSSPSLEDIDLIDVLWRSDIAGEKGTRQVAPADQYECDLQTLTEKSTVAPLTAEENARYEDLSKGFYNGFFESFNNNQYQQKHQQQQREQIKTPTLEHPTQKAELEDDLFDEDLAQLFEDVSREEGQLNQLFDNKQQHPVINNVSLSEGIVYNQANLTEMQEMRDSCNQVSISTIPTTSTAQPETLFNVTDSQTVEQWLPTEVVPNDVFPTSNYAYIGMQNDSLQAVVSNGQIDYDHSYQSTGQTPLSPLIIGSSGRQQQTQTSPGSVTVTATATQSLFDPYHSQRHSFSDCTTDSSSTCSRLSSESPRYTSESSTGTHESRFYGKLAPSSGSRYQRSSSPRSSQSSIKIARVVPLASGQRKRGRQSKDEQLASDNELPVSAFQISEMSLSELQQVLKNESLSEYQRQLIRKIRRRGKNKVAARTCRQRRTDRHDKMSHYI
# [6] = P. falciparum Dd2 growth inhibitors, dose response, SYBR Green, cherry-picked samples (AID 1159567); type: functional, cell-based
Compound,IC50 (H9c2),AC50 [6],further results
O=C(CCc1nc(O)c2ccccc2n1)N1CCCc2ccccc21,> 79 µM (inactive),,
COc1cccc(C(=O)O/N=C(\N)c2ccccn2)c1OC,,,AC50 (HEK293): 2.67 µM (active)
O=[N+]([O-])c1ccc(S(=O)(=O)NN=Cc2ccc(Cl)c(Cl)c2)cc1,,,IC50 (Fatty acid synthase [1]): 1.52 µM (active); IC50 (Fatty acid synthase [2]): 2.68 µM (active)
COc1ccc(N2CC(C(=O)NCc3nnc(O)c4ccccc34)CC2=O)cc1 (centres undefined),12.9 µM (active),,
O=C(c1cc(O)nc2ccccc12)N1CCN(S(=O)(=O)c2ccc(Cl)cc2)CC1,14.4 µM (active),,
O=C(Cn1[nH]c(=O)c2ccccc2c1=O)NNC(=O)c1ccccc1,18.6 µM (active),,
Cc1cc(C)c2c(N)c(C(=O)N/N=C/c3cccnc3)sc2n1,> 79 µM (inactive),,
COc1ccc(/C=N/Nc2cc(OC)ncn2)cc1,,,EC50 [3]: > 260 µM (inactive); EC50 [4]: 5.24 µM (active); EC50 [5]: 6.11 µM (active); AC50 (HEK293): 11.2 µM (active)
COC(=O)C1=C(C)N=C(C)/C(=C(/O)OC)C1c1ccc(OC(=O)c2ccco2)cc1 (centres undefined),,,IC50 (Protein skinhead-1): > 100 µM (inactive)
COc1ccc2c3c([nH]c2c1)[C@@H](CO)N(Cc1cccc(Cl)c1)CC31CN(C(C)=O)C1,,10.6 µM (active),
COc1ccc2c3c([nH]c2c1)[C@@H](CO)N(C(=O)Cc1ccccc1)CC31CCN(C(=O)Cc2ccccc2)CC1,,4.77 µM (active),
CCCC(=O)N1CCC2(CC1)CN[C@@H](CO)c1[nH]c3cc(OC)ccc3c12,,6.24 µM (active),
CCCNC(=O)N1CCC2(CC1)CN(Cc1cccc(F)c1)[C@@H](CO)c1[nH]c3cc(OC)ccc3c12,,10.2 µM (active),
C[C@H]1CN([C@@H](C)CO)C(=O)c2c(c3ccccc3n2C)-c2ccccc2CO[C@@H]1CN(C)S(=O)(=O)c1ccccc1F,,3.81 µM (active),
O=C(Nc1ccccc1)OCCCc1ccccc1 [3-PHENYLPROPYL PHENYLCARBAMATE],,,IC50 (Protein skinhead-1): 68.6 µM (inactive)
